# Measured values reported in patent publication US20220402882A1, “HERBICIDAL COMPOUNDS” (SYNGENTA CROP PROTECTION AG, priority 2019, published 2022).
# Experiments:
# Type in all cases: in vivo
# Settings in all cases: evaluated after 13 days
# [1] = test system: Abutilon theophrasti (ABUTH); experiment: Pre-emergence glasshouse herbicide test
# Description: (§1) Seeds of a variety of test species are sown in standard soil in pots (Lolium perenne (LOLPE), Amaranthus retoflexus (AMARE), Abutilon theophrasti (ABUTH), Setaria faberi (SETFA), Echinochloa crus-galli (ECHCG), Ipomoea hederacea (IPOHE)). After cultivation for one day (pre-emergence) or after 8 days cultivation (post-emergence) under controlled conditions in a glasshouse (at 24/16° C., day/night; 14 hours light; 65% humidity), the plants are sprayed with an aqueous spray solution derived from the formulation of the technical active ingredient in acetone/water (50:50) solution containing 0.5% Tween™ 20 (polyoxyethelyene sorbitan monolaurate, CAS RN 9005-64-5). Compounds are applied at 125 g/h unless otherwise indicated. The test plants are then grown in a glasshouse under controlled conditions in a glasshouse (at 24/16° C., day/night; 14 hours light; 65% humidity) and watered twice daily. After 13 days for pre- and post-emergence, the test is evaluated for the percentage damage caused to the plant. The biological activities are shown in the following table on a five-point scale (5=80-100%; 4=60-79%; 3=40-59%; 2=20-39%; 1=0-19%).
# [2] = test system: Amaranthus retoflexus (AMARE); experiment: Pre-emergence glasshouse herbicide test
# Description: as §1
# [3] = test system: Echinochloa crus-galli (ECHCG); experiment: Pre-emergence glasshouse herbicide test
# Description: as §1
# [4] = test system: Ipomoea hederacea (IPOHE); experiment: Pre-emergence glasshouse herbicide test
# Description: as §1
# Setaria faberi (SETFA) [5] = experiment: Pre-emergence glasshouse herbicide test
# Description: as §1
# [6] = test system: Abutilon theophrasti (ABUTH); experiment: Post-emergence glasshouse herbicide test
# Description: as §1
# [7] = test system: Amaranthus retoflexus (AMARE); experiment: Post-emergence glasshouse herbicide test
# Description: as §1
# [8] = test system: Echinochloa crus-galli (ECHCG); experiment: Post-emergence glasshouse herbicide test
# Description: as §1
# [9] = test system: Ipomoea hederacea (IPOHE); experiment: Post-emergence glasshouse herbicide test
# Description: as §1
# Setaria faberi (SETFA) [10] = experiment: Post-emergence glasshouse herbicide test
# Description: as §1
Compound,"percentage damage caused to the plant, ABUTH ([1]; 125 g/h)","percentage damage caused to the plant, AMARE ([2]; 125 g/h)","percentage damage caused to the plant, ECHCG ([3]; 125 g/h)","percentage damage caused to the plant, IPOHE ([4]; 125 g/h)","percentage damage caused to the plant, SETFA (Setaria faberi (SETFA) [5]; 125 g/h)","percentage damage caused to the plant, ABUTH ([6]; 125 g/h)","percentage damage caused to the plant, AMARE ([7]; 125 g/h)","percentage damage caused to the plant, ECHCG ([8]; 125 g/h)","percentage damage caused to the plant, IPOHE ([9]; 125 g/h)","percentage damage caused to the plant, SETFA (Setaria faberi (SETFA) [10]; 125 g/h)","percentage damage caused to the plant, ABUTH ([1]; *Applied at 250 g/ha)","percentage damage caused to the plant, AMARE ([2]; *Applied at 250 g/ha)","percentage damage caused to the plant, ECHCG ([3]; *Applied at 250 g/ha)","percentage damage caused to the plant, IPOHE ([4]; *Applied at 250 g/ha)","percentage damage caused to the plant, SETFA (Setaria faberi (SETFA) [5]; *Applied at 250 g/ha)","percentage damage caused to the plant, ABUTH ([6]; *Applied at 250 g/ha)","percentage damage caused to the plant, AMARE ([7]; *Applied at 250 g/ha)","percentage damage caused to the plant, ECHCG ([8]; *Applied at 250 g/ha)","percentage damage caused to the plant, IPOHE ([9]; *Applied at 250 g/ha)","percentage damage caused to the plant, SETFA (Setaria faberi (SETFA) [10]; *Applied at 250 g/ha)"
CC(C)CS(=O)(=O)c1c(OC(F)F)ccc(C(=O)Nc2nnnn2C)c1Cl [Compound 1.052],5 (5=80-100%),5 (5=80-100%),5 (5=80-100%),5 (5=80-100%),5 (5=80-100%),5 (5=80-100%),4 (4=60-79%),4 (4=60-79%),5 (5=80-100%),4 (4=60-79%),–,–,–,–,–,–,–,–,–,–
CC(C)S(=O)(=O)c1c(OC(F)F)ccc(C(=O)Nc2nnnn2C)c1Cl [Compound 1.054],5 (5=80-100%),5 (5=80-100%),5 (5=80-100%),4 (4=60-79%),5 (5=80-100%),4 (4=60-79%),4 (4=60-79%),4 (4=60-79%),4 (4=60-79%),4 (4=60-79%),–,–,–,–,–,–,–,–,–,–
CCn1nnnc1NC(=O)c1ccc(OC(F)F)c(S(=O)(=O)CC)c1Cl [Compound 1.049],5 (5=80-100%),5 (5=80-100%),5 (5=80-100%),5 (5=80-100%),5 (5=80-100%),5 (5=80-100%),5 (5=80-100%),5 (5=80-100%),4 (4=60-79%),5 (5=80-100%),–,–,–,–,–,–,–,–,–,–
CC[S+]([O-])c1c(OC(F)F)ccc(C(=O)Nc2nnnn2C)c1C (centres unmarked) [Compound 1.029],5 (5=80-100%),5 (5=80-100%),5 (5=80-100%),4 (4=60-79%),5 (5=80-100%),5 (5=80-100%),5 (5=80-100%),5 (5=80-100%),5 (5=80-100%),5 (5=80-100%),–,–,–,–,–,–,–,–,–,–
CCn1nnnc1NC(=O)c1ccc(OC(F)F)c(S(=O)(=O)CC)c1C [Compound 1.048],5 (5=80-100%),5 (5=80-100%),5 (5=80-100%),5 (5=80-100%),5 (5=80-100%),5 (5=80-100%),5 (5=80-100%),5 (5=80-100%),5 (5=80-100%),5 (5=80-100%),–,–,–,–,–,–,–,–,–,–
CCS(=O)(=O)c1c(CC(F)(F)F)ccc(C(=O)Nc2nnnn2C)c1C [Compound 1.024],5 (5=80-100%),5 (5=80-100%),5 (5=80-100%),5 (5=80-100%),5 (5=80-100%),5 (5=80-100%),5 (5=80-100%),5 (5=80-100%),5 (5=80-100%),5 (5=80-100%),–,–,–,–,–,–,–,–,–,–
"CSc1c(OC(F)(F)F)ccc(C(=O)Nc2nnnn2C)c1Cl [Compound 1.005, 2-chloro-3-methylsulfanyl-N-(1-methyltetrazol-5-yl)-4-(trifluoromethoxy)benzamide]",–,–,–,–,–,–,–,–,–,–,2 (2=20-39%),4 (4=60-79%),1 (1=0-19%),1 (1=0-19%),1 (1=0-19%),5 (5=80-100%),5 (5=80-100%),5 (5=80-100%),5 (5=80-100%),5 (5=80-100%)
CCS(=O)(=O)c1c(OCC(F)(F)F)ccc(C(=O)Nc2nnnn2C)c1C [Compound 1.040],5 (5=80-100%),5 (5=80-100%),5 (5=80-100%),5 (5=80-100%),5 (5=80-100%),5 (5=80-100%),5 (5=80-100%),5 (5=80-100%),5 (5=80-100%),5 (5=80-100%),–,–,–,–,–,–,–,–,–,–
CCn1nnnc1NC(=O)c1ccc(OCC(F)(F)F)c(S(=O)(=O)CC)c1Cl [Compound 1.065],5 (5=80-100%),5 (5=80-100%),5 (5=80-100%),3 (3=40-59%),5 (5=80-100%),5 (5=80-100%),5 (5=80-100%),5 (5=80-100%),4 (4=60-79%),5 (5=80-100%),–,–,–,–,–,–,–,–,–,–
"CSc1c(OC(F)(F)C(F)F)ccc(C(=O)Nc2nnnn2C)c1Cl [Compound 1.009, 2-chloro-3-methylsulfanyl-N-(1-methyltetrazol-5-yl)-4-(1,1,2,2-tetrafluoroethoxy)benzamide]",4 (4=60-79%),5 (5=80-100%),5 (5=80-100%),3 (3=40-59%),5 (5=80-100%),4 (4=60-79%),4 (4=60-79%),4 (4=60-79%),4 (4=60-79%),4 (4=60-79%),–,–,–,–,–,–,–,–,–,–
CCS(=O)(=O)c1cc(C(=O)Nc2nnc(C)o2)ccc1OC(F)(F)F [Compound 2.009],5 (5=80-100%),5 (5=80-100%),5 (5=80-100%),2 (2=20-39%),5 (5=80-100%),4 (4=60-79%),5 (5=80-100%),5 (5=80-100%),4 (4=60-79%),5 (5=80-100%),–,–,–,–,–,–,–,–,–,–
